Experimental data as given in ChEMBL document CHEMBL4052713, “Bioactivity-guided isolation of chemical constituents against H2O2-induced neurotoxicity on PC12 from Cimicifuga dahurica (Turcz.) Maxim” (Bioorg Med Chem Lett, 2017).
Activity calls are given as the source filed them. The rule behind the calls is not given here.

The compounds below were run on PC-12 (assay: Neuroprotective activity in rat PC12 cells assessed as reduction in H2O2-induced cytotoxicity at 1 to 10 uM pre-incubated for 24 hrs followed by H2O2 exposure for 24 hrs by MTT assay).
Assay type: functional, cell-based

Question: For `CCOC(=O)[C@](O)(Cc1ccc(O)cc1)[C@@H](O)C(=O)O`, which Activity is on record?
Answer: Active

Question: How did the Activity turn out when `CCOC(=O)[C@H](O)[C@@](O)(Cc1ccc(O)cc1)C(=O)O` was run?
Answer: Active

Question: With `CCOC(=O)[C@@H](OC(=O)/C=C/c1ccc(O[C@@H]2O[C@H](CO)[C@@H](O)[C@@H](O)[C@H]2O)c(OC)c1)[C@@](O)(Cc1ccc(O)cc1)C(=O)O` as the compound, how does the Activity read?
Answer: Active
